According to patent US20180311199A1, “COMBINATION TREATMENT FOR INFLAMMATORY DISEASES” (priority 2016, published 2018):

How the values were obtained:
[1] = system: IL-6, IL-19, G-CSF, S100AB, and NAP-2; test: ELISA of cytokine proteins in culture supernatant of M5-treated primary human keratinocytes (psoriasis cell culture model); type: cell-based; settings: of five gene products (IL-6, IL-19, G-CSF, S100AB, NAP-2), primary human keratinocytes + M5, 24 hours, diacerein 10 μM, infliximab 5 μg/ml
Procedure: Experiments were carried out to investigate the effect of combined anti-TNF-α (infliximab) and diacerein, an inhibitor for a pro-inflammatory cytokine interleukin-1, utilizing an in vivo-equivalent psoriasis cell culture system. This in vivo-equivalent model is generated by using a group of 5 different natural chemicals (M5: IL-17A, IL-22, Oncostatin-M, IL-1α, and TNF-α) on human epidermal cells keratinocytes, recapitulating the in vivo immune dysregulation as identified in vivo in the skin lesions of patients affected by psoriasis (Guilloteau et al., Skin Inflammation Induced by the Synergistic Action of IL-17A, IL-22, Oncostatin M, IL-1α, and TNF-α Recapitulates Some Features of Psoriasis. Journal of Immunology 2010; 184:5263-70). […]
After 24 hours of incubation, the culture media (supernatant) of the above 5 groups were collected and stored at −20° C. for ELISA experiments as the following: 50-100 μl of cell culture supernatant were assayed with commercially available ELISA kits for human cytokines according to the manufacturers' instructions (IL-6, IL-19, G-CSF, S100AB, and NAP-2). The data we collected determined that infliximab alone (group 3), diacerein alone (group 4), and combined infliximab and diacerein (group 5) partially or completely reverse the dysregulation effect of the 5 natural chemicals (M5) in five, three, and five genes, respectively. […]

[2] = system: pro-inflammatory genes regulated by M5; test: Inflammatory Response and Autoimmune PCR Array on RNA of M5-treated primary human keratinocytes; type: cell-based; settings: diacerein 10 μM, infliximab 5 μg/ml; for number of genes in which the greatest effect was seen: of 48 genes partially or fully reversed by all three groups, keratinocytes + M5, 24 hours; for number of genes on which the effect of the five cytokines was partially or fully reversed: of 81 pro-inflammatory genes significantly (p<0.05) regulated at least 2-fold by M5, keratinocytes, 24 hours
Procedure: Experiments were carried out to investigate the effect of combined anti-TNF-α (infliximab) and diacerein, an inhibitor for a pro-inflammatory cytokine interleukin-1, utilizing an in vivo-equivalent psoriasis cell culture system. This in vivo-equivalent model is generated by using a group of 5 different natural chemicals (M5: IL-17A, IL-22, Oncostatin-M, IL-1α, and TNF-α) on human epidermal cells keratinocytes, recapitulating the in vivo immune dysregulation as identified in vivo in the skin lesions of patients affected by psoriasis (Guilloteau et al., Skin Inflammation Induced by the Synergistic Action of IL-17A, IL-22, Oncostatin M, IL-1α, and TNF-α Recapitulates Some Features of Psoriasis. Journal of Immunology 2010; 184:5263-70). Thus, this in vivo-equivalent model provides an excellent tool for the investigation of the combined effect of anti-TNF-α and diacerein on psoriasis.
The experiments were carried out in the following manner: Primary human keratinocytes (purchased from Invitrogen, Carlsbad, Calif.) Epilife culture medium supplemented with human keratinocyte growth supplement (Invitrogen) in standard humidified chamber (37° C., 5% CO2). When the cells reached 80% confluency, cells were divided into 5 groups for treatment: • 1). Cell culture medium alone, serving as a negative control • 2). Cell culture medium plus 5 natural chemicals (M5) • 3). Cell culture medium plus 5 natural chemicals (M5) and anti-TNF-alpha (infliximab) • 4). Cell culture medium plus 5 natural chemicals (M5) and diacerein • 5). Cell culture medium plus 5 natural chemicals (M5), anti-TNF-alpha (infliximab) and diacerein.
The above 5 groups were incubated at 37° C. for 24 hours.
The concentrations and commercial sources of the experiment components are: • IL-17 alpha (10 ng/ml, Life Technologies, Frederick, Md.) • IL-22 (10 ng/ml. Life Technologies, Frederick, Md.) • Oncostatin-M (10 ng/ml, Life Technologies, Frederick, Md.) • IL-1 alpha (10 ng/ml, Life Technologies, Frederick, Md.) • TNF-alpha ([…], Life Technologies, Frederick, Md.) • Diacerein (10 μM, Sigma Aldrich, Saint Louis, Md.) • Infliximab (Remicade®, an anti-TNF-alpha, 5 μg/ml, Jansen Biotech, Horsham, Pa.)
After 24 hours of incubation, the cultured cells were washed three times with sterile PBS (phosphate-buffered saline) and the RNAs were harvested with Trizol (Invitrogen) and the purity (A260/A280 ratio>1.8) was confirmed. Reverse transcription was performed with 1 micro gram RNA using first strand kit from Invitrogen according to manufacturer's instruction. 10 μl of mastermix (Qiagen, Valencia, Calif.) with the reversely transcribed cDNA were amplified using a real-time PCR machine (ViiA7 PCR, Applied Biosystems, Waltham, Pa.). Statistical analysis was performed with web-based Software. […]

| Compound | number of genes in which the dysregulation effect of the 5 natural chemicals (M5) is partially or completely reversed [1] | number of genes in which the greatest effect was seen [2] [genes] | number of genes on which the effect of the five cytokines was partially or fully reversed [2] [genes] |
| --- | --- | --- | --- |
| CC(=O)Oc1cccc2c1C(=O)c1c(OC(C)=O)cc(C(=O)O)cc1C2=O [diacerein] | three | 17 | 61 |
| infliximab | five | 10 | 67 |
